Measured values as given in patent US20100298758A1, “METHOD FOR NON-THERAPEUTIC OR THERAPEUTIC PHOTODYNAMIC SKIN TREATMENT” (priority 2007, published 2010).

System: cancer cells with high metabolism
Experiment: Fluorescence after administration of 5-ALA in actinic keratosis (FIG. 5)
Assay type: in vivo
Settings: other investigations

For NCC(=O)CCC(=O)O [5-ALA, 5-aminolevulinic acid], the “fluorescence in cancer cells compared to normal cells” value was “high selective fluorescence in cancer cells”.
